Data as given in ChEMBL document CHEMBL5137044, “Expansion of the S-CN-DABO scaffold to exploit the impact on inhibitory activities against the non-nucleoside HIV-1 reverse transcriptase” (Eur J Med Chem, 2022).

What was measured:
[1] = tested on: Human immunodeficiency virus 1; experiment: Antiviral activity against […] HIV-1 infected in human MT4 cells assessed as reduction in virus-induced cytopathic effect incubated for 5 days by MTT assay; format: functional, organism-based; conditions: Human immunodeficiency virus 1, MT4, 120 h
[2] = Cytotoxicity against human MT4 cells assessed as cell growth inhibition incubated for 5 days by MTT assay; format: toxicity, cell-based; conditions: time 5 day
[3] = tested on: Human immunodeficiency virus 1; experiment: Antiviral activity against drug-resistant HIV-1 L100I mutant infected in human MT4 cells assessed as reduction in virus-induced cytopathic effect incubated for 5 days by MTT assay; format: functional, organism-based; conditions: Human immunodeficiency virus 1, L100I mutant, MT4, 120 h
[4] = tested on: Human immunodeficiency virus 1; experiment: Antiviral activity against drug-resistant HIV-1 Y188L mutant infected in human MT4 cells assessed as reduction in virus-induced cytopathic effect incubated for 5 days by MTT assay; format: functional, organism-based; conditions: Human immunodeficiency virus 1, Y188L mutant, MT4, 120 h
[5] = biological target: Human immunodeficiency virus type 1 reverse transcriptase (Human immunodeficiency virus 1, UniProt Q72547); experiment: Inhibition of recombinant wild-type p66/p51 HIV-1 reverse transcriptase incubated for 40 mins by picogreen dye-based spectrofluorometric analysis
[6] = biological target: Cytochrome P450 2C9 (Homo sapiens, UniProt P11712); experiment: Inhibition of CYP2C9 in human liver microsomes using […] as substrate incubated for 15 to 40 mins in presence of NADPH; format: ADME, Microsome
[7] = biological target: T1, Cytochrome P450 1A2 (Homo sapiens, UniProt P05177); experiment: Inhibition of CYP1A2 in human liver microsomes using phenacetin as substrate incubated for 15 to 40 mins in presence of NADPH; format: ADME, Microsome
T1 sequence (P05177 whole entry): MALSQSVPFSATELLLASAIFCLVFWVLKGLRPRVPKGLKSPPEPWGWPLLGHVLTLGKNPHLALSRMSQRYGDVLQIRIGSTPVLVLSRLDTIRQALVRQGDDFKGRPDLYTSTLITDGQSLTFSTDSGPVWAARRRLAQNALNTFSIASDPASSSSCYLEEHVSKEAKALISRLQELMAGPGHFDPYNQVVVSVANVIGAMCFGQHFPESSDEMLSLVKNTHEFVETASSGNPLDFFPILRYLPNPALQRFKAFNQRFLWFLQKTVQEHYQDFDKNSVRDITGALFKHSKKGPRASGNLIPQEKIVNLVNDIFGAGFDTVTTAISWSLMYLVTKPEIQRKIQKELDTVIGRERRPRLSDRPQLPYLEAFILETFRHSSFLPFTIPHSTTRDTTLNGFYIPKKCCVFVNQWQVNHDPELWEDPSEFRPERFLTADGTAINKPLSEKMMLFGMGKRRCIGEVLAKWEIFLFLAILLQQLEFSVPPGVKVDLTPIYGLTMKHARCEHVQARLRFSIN

[8] = biological target: Cytochrome P450 2C19 (Homo sapiens, UniProt P33261); experiment: Inhibition of CYP2C19 in human liver microsomes using s-mephenytoin as substrate incubated for 15 to 40 mins in presence of NADPH; format: ADME, Microsome
[9] = biological target: T2, Cytochrome P450 3A4 (Homo sapiens, UniProt P08684); experiment: Inhibition of CYP3A4T in human liver microsomes using testosterone as substrate incubated for 15 to 40 mins in presence of NADPH; format: ADME, Microsome
[10] = biological target: T2, Cytochrome P450 3A4; experiment: Inhibition of CYP3A4M in human liver microsomes using midazolam as substrate incubated for 15 to 40 mins in presence of NADPH; format: ADME, Microsome
[11] = Half life in Sprague-Dawley rat at 10 mg/kg,po measured upto 24 hrs by LC-MS/MS analysis; format: ADME, organism-based; conditions: in vivo
[12] = Half life in Sprague-Dawley rat at 1 mg/kg,iv measured upto 24 hrs by LC-MS/MS analysis; format: ADME, organism-based; conditions: in vivo
[13] = Tmax in Sprague-Dawley rat at 10 mg/kg,po measured upto 24 hrs by LC-MS/MS analysis; format: ADME, organism-based; conditions: in vivo
[14] = Tmax in Sprague-Dawley rat at 1 mg/kg,iv measured upto 24 hrs by LC-MS/MS analysis; format: ADME, organism-based; conditions: in vivo
[15] = Cmax in Sprague-Dawley rat at 1 mg/kg,iv measured upto 24 hrs by LC-MS/MS analysis; format: ADME, organism-based; design: dose 1 mg/kg, time < 24 hrs, route iv; conditions: in vivo
[16] = C0 in Sprague-Dawley rat at 1 mg/kg,iv measured upto 24 hrs by LC-MS/MS analysis; format: ADME, organism-based; conditions: in vivo
[17] = AUC (0 to t) in Sprague-Dawley rat at 10 mg/kg,po measured upto 24 hrs by LC-MS/MS analysis; format: ADME, organism-based; design: dose 10 mg/kg, time < 24 hrs, route po; conditions: in vivo
[18] = AUC (0 to infinity) in Sprague-Dawley rat at 10 mg/kg,po measured upto 24 hrs by LC-MS/MS analysis; format: ADME, organism-based; design: dose 10 mg/kg, time < 24 hrs, route po; conditions: in vivo
[19] = AUC (0 to infinity) in Sprague-Dawley rat at 1 mg/kg,iv measured upto 24 hrs by LC-MS/MS analysis; format: ADME, organism-based; design: dose 1 mg/kg, time < 24 hrs, route iv; conditions: in vivo
[20] = Clearance in Sprague-Dawley rat at 10 mg/kg,po measured upto 24 hrs by LC-MS/MS analysis; format: ADME, organism-based; conditions: in vivo
[21] = MRT(0 to t) in Sprague-Dawley rat at 10 mg/kg,po measured upto 24 hrs by LC-MS/MS analysis; format: ADME, organism-based; conditions: in vivo
[22] = MRT (0 to infinity) in Sprague-Dawley rat at 1 mg/kg,iv measured upto 24 hrs by LC-MS/MS analysis; format: ADME, organism-based; conditions: in vivo
[23] = Acute toxicity in mouse assessed as body weight change at 1 g/Kg,IG monitored for 2 weeks; conditions: in vivo, po, 1000 mg/kg, 336 h
[24] = Acute toxicity in mouse assessed as mouse death at 1 g/Kg,IG monitored for 2 weeks; conditions: in vivo, po, 1000 mg/kg, 336 h
[25] = Acute toxicity in healthy mouse assessed as brain damage at 1 g/Kg,IG monitored for 2 weeks by HE staining based assay; format: tissue-based; conditions: in vivo, po, 1000 mg/kg, 336 h
[26] = Acute toxicity in healthy mouse assessed as heart damage at 1 g/Kg,IG monitored for 2 weeks by HE staining based assay; format: tissue-based; conditions: in vivo, po, 1000 mg/kg, 336 h
[27] = Acute toxicity in healthy mouse assessed as spleen damage at 1 g/Kg,IG monitored for 2 weeks by HE staining based assay; format: tissue-based; conditions: in vivo, po, 1000 mg/kg, 336 h
[28] = Acute toxicity in healthy mouse assessed as kidney damage at 1 g/Kg,IG monitored for 2 weeks by HE staining based assay; format: tissue-based; conditions: in vivo, po, 1000 mg/kg, 336 h
[29] = Acute toxicity in mouse assessed as behavioral abnormalities at 1 g/Kg,IG monitored for 2 weeks; conditions: in vivo, po, 1000 mg/kg, 336 h
[30] = biological target: hERG (Homo sapiens, UniProt Q12809); experiment: Inhibition of human ERG expressed in CHO cells at 40 uM at -80 mV holding potential by automated patch clamp method relative to control; format: toxicity, cell-based; conditions: CHO cells that express hERG
[31] = Fold resistance, ratio of EC50 for antiviral activity against drug-resistant HIV-1 L100I mutant infected in human MT4 cells to EC50 for antiviral activity against […] HIV-1 infected in human MT4 cells; format: functional
[32] = Fold resistance, ratio of EC50 for antiviral activity against drug-resistant HIV-1 Y181C mutant infected in human MT4 cells to EC50 for antiviral activity against […] HIV-1 infected in human MT4 cells; format: functional
[33] = Fold resistance, ratio of EC50 for antiviral activity against drug-resistant HIV-1 Y188L mutant infected in human MT4 cells to EC50 for antiviral activity against […] HIV-1 infected in human MT4 cells; format: functional

T2 sequence (P08684 whole entry): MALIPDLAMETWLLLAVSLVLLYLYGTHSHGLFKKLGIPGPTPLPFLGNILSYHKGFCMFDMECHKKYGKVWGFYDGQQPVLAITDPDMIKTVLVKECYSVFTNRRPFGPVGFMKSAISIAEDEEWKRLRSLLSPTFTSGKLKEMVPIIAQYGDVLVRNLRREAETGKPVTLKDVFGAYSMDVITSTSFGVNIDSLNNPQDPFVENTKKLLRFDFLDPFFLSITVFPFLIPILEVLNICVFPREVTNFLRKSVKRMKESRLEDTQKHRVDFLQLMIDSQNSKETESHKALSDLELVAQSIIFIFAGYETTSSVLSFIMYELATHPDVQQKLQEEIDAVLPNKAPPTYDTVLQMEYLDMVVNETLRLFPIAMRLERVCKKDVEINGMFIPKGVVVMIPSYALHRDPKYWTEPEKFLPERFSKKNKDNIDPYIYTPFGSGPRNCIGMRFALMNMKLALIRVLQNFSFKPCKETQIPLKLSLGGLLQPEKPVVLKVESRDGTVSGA
Chain of Cytochrome P450 2C19 (P33261 whole entry): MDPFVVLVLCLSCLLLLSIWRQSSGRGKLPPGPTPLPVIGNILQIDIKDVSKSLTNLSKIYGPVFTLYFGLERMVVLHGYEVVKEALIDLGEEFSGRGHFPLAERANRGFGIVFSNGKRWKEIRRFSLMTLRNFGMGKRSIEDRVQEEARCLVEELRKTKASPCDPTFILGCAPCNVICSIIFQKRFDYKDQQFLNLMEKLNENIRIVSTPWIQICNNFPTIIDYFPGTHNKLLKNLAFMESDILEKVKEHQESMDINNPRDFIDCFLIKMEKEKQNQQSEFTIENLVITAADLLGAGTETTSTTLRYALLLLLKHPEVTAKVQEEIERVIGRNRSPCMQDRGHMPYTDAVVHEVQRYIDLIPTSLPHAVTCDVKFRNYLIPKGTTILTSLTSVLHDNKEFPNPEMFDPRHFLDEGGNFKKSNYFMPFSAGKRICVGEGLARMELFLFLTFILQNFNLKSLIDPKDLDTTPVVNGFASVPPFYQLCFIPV
Chain of Cytochrome P450 2C9 (P11712 whole entry): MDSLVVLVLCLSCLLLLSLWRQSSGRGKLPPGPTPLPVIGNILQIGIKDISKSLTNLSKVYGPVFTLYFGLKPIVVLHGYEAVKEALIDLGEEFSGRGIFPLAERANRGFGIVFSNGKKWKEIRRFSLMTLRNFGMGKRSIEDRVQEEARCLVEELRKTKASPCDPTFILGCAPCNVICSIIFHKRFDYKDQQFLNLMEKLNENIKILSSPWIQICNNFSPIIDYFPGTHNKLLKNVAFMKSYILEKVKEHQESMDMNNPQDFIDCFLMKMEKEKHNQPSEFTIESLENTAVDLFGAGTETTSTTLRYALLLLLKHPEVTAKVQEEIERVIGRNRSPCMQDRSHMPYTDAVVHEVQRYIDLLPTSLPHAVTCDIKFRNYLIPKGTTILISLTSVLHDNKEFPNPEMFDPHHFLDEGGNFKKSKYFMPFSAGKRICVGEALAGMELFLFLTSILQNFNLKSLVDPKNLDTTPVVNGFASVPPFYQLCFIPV
Chain of hERG (Q12809 whole entry): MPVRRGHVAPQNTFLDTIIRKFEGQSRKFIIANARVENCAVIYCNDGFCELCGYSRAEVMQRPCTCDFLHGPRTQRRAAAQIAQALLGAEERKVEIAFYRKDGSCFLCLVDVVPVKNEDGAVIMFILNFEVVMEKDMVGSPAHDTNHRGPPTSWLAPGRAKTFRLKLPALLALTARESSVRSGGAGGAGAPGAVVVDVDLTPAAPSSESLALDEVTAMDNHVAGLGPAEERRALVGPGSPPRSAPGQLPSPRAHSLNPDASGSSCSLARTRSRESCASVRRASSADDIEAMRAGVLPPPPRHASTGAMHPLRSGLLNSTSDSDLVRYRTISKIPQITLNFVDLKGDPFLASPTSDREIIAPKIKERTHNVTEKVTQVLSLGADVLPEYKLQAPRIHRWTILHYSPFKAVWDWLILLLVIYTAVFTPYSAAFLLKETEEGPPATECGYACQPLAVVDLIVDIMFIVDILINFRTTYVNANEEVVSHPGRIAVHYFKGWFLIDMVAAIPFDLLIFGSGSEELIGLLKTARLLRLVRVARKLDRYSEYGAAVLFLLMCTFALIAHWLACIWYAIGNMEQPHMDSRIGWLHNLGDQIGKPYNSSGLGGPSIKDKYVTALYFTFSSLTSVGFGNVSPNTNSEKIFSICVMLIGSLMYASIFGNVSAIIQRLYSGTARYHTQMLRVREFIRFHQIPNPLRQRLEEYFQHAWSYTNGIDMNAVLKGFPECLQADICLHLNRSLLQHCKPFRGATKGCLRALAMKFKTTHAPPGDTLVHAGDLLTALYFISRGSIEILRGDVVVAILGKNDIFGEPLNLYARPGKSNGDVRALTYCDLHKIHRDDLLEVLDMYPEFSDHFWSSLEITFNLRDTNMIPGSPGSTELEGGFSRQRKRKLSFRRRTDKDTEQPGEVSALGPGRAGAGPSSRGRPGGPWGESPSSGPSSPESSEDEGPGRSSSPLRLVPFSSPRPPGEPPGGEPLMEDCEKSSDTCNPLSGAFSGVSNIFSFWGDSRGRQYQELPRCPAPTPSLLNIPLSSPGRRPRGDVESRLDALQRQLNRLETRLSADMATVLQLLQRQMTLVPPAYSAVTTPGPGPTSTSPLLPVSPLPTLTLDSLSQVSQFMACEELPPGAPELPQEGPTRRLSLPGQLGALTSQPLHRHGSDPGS

## Cc1c(C(C#N)c2c(F)cccc2F)nc(SC(C)C)[nH]c1=O (stereo not drawn)
[1]
  EC50: 0.0208 µM
[2]
  CC50 at 120 h: 137 µM
[3]
  EC50: 1.03 µM
[4]
  EC50: 69 µM
[5]
  IC50: 0.079 µM
[6]
  IC50: 40.4 µM
[7]
  IC50: > 50 µM
[8]
  IC50: 35.3 µM
[9]
  IC50: > 50 µM
[10]
  IC50: > 50 µM
[11]
  half-life: 4.39 h
[12]
  half-life: 4.07 h
[13]
  Tmax: 3.5 h
[14]
  Tmax: 4.8 min
[15]
  Cmax: 7620 ng/mL
[16]
  C0 at 24 h: 9310 ng/mL
[17]
  AUC(0-t) at 24 h: 133 µg·h/mL
[18]
  AUC(0-inf): 136 µg·h/mL
[19]
  AUC(0-inf): 8.32 µg·h/mL
[20]
  CL/F: 1.24 mL/min/kg
[21]
  MRT last at 24 h: 6.2 h
[22]
  MRT inf: 2.41 h
[23]
  Activity: Non-Toxic
[24]
  Activity: Non-Toxic
[25]
  Activity: Non-Toxic
[26]
  Activity: Non-Toxic
[27]
  Activity: Non-Toxic
[28]
  Activity: Non-Toxic
[29]
  Activity: Non-Toxic
[30]
  inhibition at 40 µM: 29.4%
[31]
  Ratio EC50: 50
[32]
  Ratio EC50: 36
[33]
  Ratio EC50: 3319
